# According to patent US10881709B2, “Immune system modulators and compositions” (Canimguide Therapeutics AB, priority 2015, dated 2021):
# Peptide text beside a SMILES is read from it.
# How the values were obtained:
# K562 target cells = assay: NK-cell cytotoxicity (NKTEST, flow cytometry); assay type: cell-based, human; settings: 10 ug/ml peptide, effector:target 40:1, four donors
# Method: The NK-cell cytotoxic activity of blood mononuclear cells from four healthy donors was tested. Mononuclear cells were separated by standard Ficoll-Paque® Plus (Pharmacia AB, Sweden) density gradient centrifugation from heparinized blood obtained from healthy donors. NK cell cytotoxic activity of the mononuclear cells was then tested using a commercial kit (NKTEST, Orpegen Pharma GmblI, Heidelberg, Germany) following the manufacturers protocol. Briefly, the kit contains cryopreserved, NK-sensitive target cells (K562) labeled with a lipophilic green fluorescent membrane dye, which enables discrimination of effector and target cells. After incubation with effector cells, killed target cells are identified by a DNA-stain, which penetrates and specifically stain the nuclei of dead target cells. This way the percentage of killed targets can be determined by flow cytometry. The mononuclear cells were preincubated for 30 min at 37° C. with the indicated peptides (peptides have been described previously) at 10 ug/ml. Target cells were then added, giving an effector:target ratio of 40:1, and the cell mixture incubated at 37° C. for 3-4 hours. Samples were analysed on a FACSCalibur (BD® Biosciences, San Jose, Calif.).
# Solubility = assay type: physicochemical
# P3028 = P3028 (Homo sapiens, UniProt P02768); assay: Binding of His-tag labeled P3028 to looped (cyclic) peptides on chips, ELISA; settings: positional scan of looped 6-meres
# Method: In order to identify cyclic peptides that bind to P3028, all possible variants of di- and tripeptides were synthesized on chips and the binding of the His-tag labeled P 3028 was analyzed using the ELISA-technique. Based on the identified binding motifs, looped 6-meres were produced and tested. […] Positional scans were performed in each position of the lead cyclic peptide was replaced with each of the other 19 L-amino acids. Binding of each of the substituted peptides was tested, and peptide sequences with even better binding capacity than that of the lead peptide were identified.
# PBMCs = assay: IL-2 induced proliferation of PBMCs, 3H-thymidine incorporation (human ex vivo model); assay type: cell-based; settings: for inhibition of IL-2 induced proliferation: PBMCs from healthy control samples, 7 days, 3H-thymidine; for neutralization of the inhibitory effect of P3028 on IL-2 induced proliferation: fragments alone or in combination
# Method: 100 μl of RPMI1640 supplemented with 200 IU/ml penicillin, […] streptomycin, 4 mM L-glutamine (all from Sigma® Chemical Co. MO, US) and 20% heat-inactivated human serum (autologous or from cancer patients) were added to uncoated, HSA or HSA/IgG coated tissue culture microtiter plates. PBMC, isolated from healthy individuals or patients with metastatic renal cell carcinoma, were diluted in RPMI/2% HSA at a concentration of 5×10^5/ml and 100 μl were added to the microtiter wells. Interleukin-2 (IL-2, Proleukin®, Chiron®, NL), at a final concentration of 120 IU/well, was added to some wells. Cells were cultured for 7 days in a humidified, 5% CO2-atmosphere at 37° C. Proliferation was assayed by incorporation of 1.6 μCi/well of [^3H]-thymidine (Amersham® Int., UK) during the last 18 hrs. Mean values of dpm (disintegrations per minute) of triplicates were used for the calculations.
# Cultures for IL-2 induced proliferation was set up with PBMC from healthy donors and autologous serum as described above with the exception that PBMC were first pre-incubated for 30 min at room temperature with the indicated albumin peptides at a concentration of 10 μg/ml.
# Round-bottomed, 96-well tissue culture plates (Costar®, Corning® Inc. NY, US) were pre-coated with HSA only or HSA and pooled human IgG for intravenous injection (Gammagard®, Baxter AS, DK) as follows; HSA was diluted in RPMI1640 without supplements to a concentration of 10 mg/ml. A mixture of 1 mg/ml IgG in a solution of 9 mg/ml HSA in RPMI (HSA/IgG) was also prepared. 200 μl of HSA or HSA/IgG were then added to each well of the plate. The plates were incubated at 4° C. for 30 minutes after which the wells were washed twice with 200 μl of RPMI1640. The coated plates were used immediately. 100 μl of RPMI1640 supplemented with 200 IU/ml penicillin, […] streptomycin, 4 mM L-glutamine (all from Sigma® Chemical Co. MO, US) and 20% heat-inactivated human serum (autologous) were added to the HSA or HSA/IgG coated tissue culture microtiter wells. PBMC, isolated from healthy individuals, were diluted in RPMI/2% HSA and peptides were added directly to the cell suspension at a concentration of 10 μg/ml. One hundred μl of this cell suspension (5×10^4 lymphocytes) was then added per well providing a final concentration of 5 μg/ml peptide per well. IL-2 (Proleukin®, Chiron®, NL), at a final concentration of 120 IU/well, was added to the wells. Cells were cultured for 7 days in a humidified, 5% CO2-atmosphere at 37° C. Proliferation was assayed by incorporation of 1.6 μCi/well of [^3H]-thymidine (Amersham® Int., UK) during the last 18 hrs. Mean values of dpm (disintegrations per minute) of triplicates were used for the calculations.
# The model included PBMCs isolated from venous blood samples from healthy blood donors (control samples) or cancer patients. One hundred pI of culture medium (RPMI 1640 Dutch's modification (Gibco®, InVitrogenAB®, Stockholm, Sweden) supplemented with 200 IV/ml penicillin, 200 ug/ml streptomycin, 4 mM L-glutamine (all from Sigma® Chemical Co. MO, US) and 20% heat-inactivated human serum) were added to roundbottomed, 96-well tissue culture plates (Costar®, Corning® Inc. NY, US). […] Control sample wells without IL-2 was set up in parallel. […]
# The effect of different peptides on IL-2 induced proliferation was analyzed in the human ex vivo model, using PBMCs from healthy control samples. […] Proliferation was measured as incorporation of ^3H-thymidine during the final 18 hours. […]
# P3028, dHSA, HSA = assay: ELISA and competition ELISA with rabbit anti-3028 antiserum; assay type: binding, human; settings: competition ELISA, serum L
# Method: Duplicate wells in Hi-binding microtitre plates (Costar® 2592, Corning® Inc, NY, USA) were coated with 100 μl of P3028 (10 ug/ml), denatured HSA (denHSA, 4.5 ug/ml) or control HSA sample (4.5 ug/ml). All coating reagent were diluted in PBS and incubated at room temperature overnight. The wells where then washed with wash buffer consisting of 0.05% Tween-20 in PBS (Sigma®) followed by blocking for 1 hr at 25° C. with 200 μl 0.5% gelatin prepared from bovine skin (Sigma®) in PBS followed by washing in wash buffer. […] Biotinylated horse anti-rabbit/mouse IgG (Vectastain® ELITE, Vector® Laboratories Inc, CA, USA) diluted 1/5 in ELISA reagent diluent was then added and the plates incubated for 1 h at 25° C. followed by washing. Next, HRP-conjugated streptavidin (R&D Systems® Europe, Ltd, UK) was added. Finally, after washing in wash buffer, substrate solution consisting of H2O2 and tetramethylbenzidine (R&D Systems®) was added. The reaction was stopped with 1M H2504 and the optical density measured as absorbance (A) at dual wavelengths, 450 nm and 570 nm, with a Multiscan® EX microplate reader (Labsystems).
# Two antisera, R and L, from two different rabbits were tested for their ability to bind human serum and denatured Human Serum Albumin (dHSA). […] No substantial binding was detected for wells with no coat 202. […]
binding of cyclic peptides to P3028 (P3028),Compound,inhibition of IL-2 induced proliferation (PBMCs),neutralization of the inhibitory effect of P3028 on IL-2 induced proliferation (PBMCs),"binding of rabbit anti-P3028 serum antibodies to P3028 fragments (P3028, dHSA, HSA)",also measured
–,CC(C)C[C@H](NC(=O)[C@H](C)NC(=O)[C@H](CC(N)=O)NC(=O)[C@H](CCC(N)=O)NC(=O)[C@H](Cc1ccccc1)NC(=O)[C@H](CCCCN)NC(=O)[C@H](Cc1ccc(O)cc1)NC(=O)[C@H](CCC(=O)O)NC(=O)CNC(=O)[C@H](CC(C)C)NC(=O)[C@H](CCC(N)=O)NC(=O)[C@H](CCC(=O)O)NC(=O)[C@H](Cc1ccccc1)NC(=O)[C@H](CC(C)C)NC(=O)[C@@H](N)CCC(=O)O)C(=O)N[C@@H](CC(C)C)C(=O)N[C@H](C(=O)N[C@@H](CCCNC(=N)N)C(=O)O)C(C)C [P3027] (H-ELFEQLGEYKFQNALLVR-OH; N-terminus and C-terminus assumed),–,–,–,effect on NK-cell cytotoxicity (percent specific lysis of K562) (K562 target cells): Inhibition was not seen
–,CC(C)C[C@H](NC(=O)[C@H](CO)NC(=O)[C@H](CC(C)C)NC(=O)[C@H](Cc1ccc(O)cc1)NC(=O)[C@@H](NC(=O)[C@H](Cc1ccccc1)NC(=O)[C@H](Cc1ccccc1)NC(=O)[C@@H](NC(=O)[C@H](CC(=O)O)NC(=O)[C@H](CC(C)C)NC(=O)[C@H](CCCCN)NC(=O)[C@@H](N)CCCCN)[C@@H](C)O)C(C)C)C(=O)N[C@@H](Cc1ccccc1)C(=O)N[C@H](C(=O)N[C@@H](CCC(=O)O)C(=O)N[C@@H](CCCNC(=N)N)C(=O)O)[C@@H](C)O [SEQ ID NO: 552] (H-KKLDTFFVYLSLFTER-OH; N-terminus and C-terminus assumed),–,–,–,solubility (Solubility): soluble in aqueous solution
highest affinity,CLRLIVMCG [SEQ ID NO: 266],–,–,–,–
highest affinity,CLRLNVFCG [SEQ ID NO: 265],–,–,–,–
–,EPQNLIK (listed as Homo sapiens) [P3218],much weaker,do not inhibit,not,–
–,VFDEFKPLVE (listed as Homo sapiens) [P3325],much weaker,do not inhibit,bound preferentially,–
